# From patent US11311522B1 (Cavion, Inc., priority 2018, dated 2022)
# Assay: PN001/Part I: safety and tolerability
# Type: in vivo, human
# Text: Safety was monitored throughout by adverse events, vital signs, and repeated clinical and laboratory evaluations. […] All adverse events were mild or moderate and severity and transient.
compound,measurement,setting,value
CC(C)c1ccc(CC(=O)N[C@H](C)c2ccc(OCC(F)(F)F)cn2)cc1 [CX-8998],Abnormal physical sensation,12 mg,0 n (%)
same,At least 1 adverse event,12 mg,9 (75.0) n (%)
same,Dizziness,12 mg,1 (8.3) n (%)
same,Drowsiness,12 mg,1 (8.3) n (%)
same,Elevated mood,12 mg,1 (8.3) n (%)
same,Euphoric mood,12 mg,2 (16.7) n (%)
same,Eye Disorders,12 mg,1 (8.3) n (%)
same,Fatigue,12 mg,0 n (%)
same,Feeling abnormal,12 mg,2 (16.7) n (%)
same,Floating feeling,12 mg,0 n (%)
same,Gastro-intestinal Disorders,12 mg,3 (25.0) n (%)
same,Hangover effect,12 mg,0 n (%)
same,Headache,12 mg,2 (16.7) n (%)
same,Indifference,12 mg,0 n (%)
same,"Injury, Poisoning and Procedural Complications",12 mg,0 n (%)
same,Insomnia,12 mg,0 n (%)
same,Intoxication,12 mg,0 n (%)
same,Irritability,12 mg,0 n (%)
same,Lethargy,12 mg,1 (8.3) n (%)
same,Nervous System Disorders,12 mg,5 (41.7) n (%)
same,Paraesthesia,12 mg,0 n (%)
same,Paraesthesia oral,12 mg,1 (8.3) n (%)
same,Paraesthesia tongue,12 mg,2 (16.7) n (%)
same,Psychiatric Disorders,12 mg,4 (33.3) n (%)
same,Racing thoughts,12 mg,1 (8.3) n (%)
same,Relaxed,12 mg,4 (33.3) n (%)
same,Sensory disturbance,12 mg,0 n (%)
same,Vision blurred,12 mg,0 n (%)
same,Visual disturbance,12 mg,1 (8.3) n (%)
same,Vivid dreams,12 mg,0 n (%)
same,Abnormal physical sensation,12 mg evening,0 n (%)
same,At least 1 adverse event,12 mg evening,4 (66.7) n (%)
same,Dizziness,12 mg evening,0 n (%)
same,Drowsiness,12 mg evening,1 (16.7) n (%)
same,Elevated mood,12 mg evening,0 n (%)
same,Euphoric mood,12 mg evening,0 n (%)
same,Eye Disorders,12 mg evening,3 (50.0) n (%)
same,Fatigue,12 mg evening,0 n (%)
same,Feeling abnormal,12 mg evening,0 n (%)
same,Floating feeling,12 mg evening,0 n (%)
same,Gastro-intestinal Disorders,12 mg evening,1 (16.7) n (%)
same,Hangover effect,12 mg evening,0 n (%)
same,Headache,12 mg evening,1 (16.7) n (%)
same,Indifference,12 mg evening,0 n (%)
same,"Injury, Poisoning and Procedural Complications",12 mg evening,0 n (%)
same,Insomnia,12 mg evening,0 n (%)
same,Intoxication,12 mg evening,0 n (%)
same,Irritability,12 mg evening,0 n (%)
same,Lethargy,12 mg evening,1 (16.7) n (%)
same,Nervous System Disorders,12 mg evening,3 (50.0) n (%)
same,Paraesthesia,12 mg evening,0 n (%)
same,Paraesthesia oral,12 mg evening,0 n (%)
same,Paraesthesia tongue,12 mg evening,1 (16.7) n (%)
same,Psychiatric Disorders,12 mg evening,2 n (%)
same,Racing thoughts,12 mg evening,0 n (%)
same,Relaxed,12 mg evening,0 n (%)
same,Sensory disturbance,12 mg evening,0 n (%)
same,Vision blurred,12 mg evening,0 n (%)
same,Visual disturbance,12 mg evening,3 (50.0) n (%)
same,Vivid dreams,12 mg evening,2 n (%)
same,Abnormal physical sensation,16 mg evening,0 n (%)
same,At least 1 adverse event,16 mg evening,9 (75.0) n (%)
same,Dizziness,16 mg evening,1 (8.3) n (%)
same,Drowsiness,16 mg evening,1 (8.3) n (%)
same,Elevated mood,16 mg evening,3 (25.0) n (%)
same,Euphoric mood,16 mg evening,3 (25.0) n (%)
same,Eye Disorders,16 mg evening,1 (8.3) n (%)
same,Fatigue,16 mg evening,2 (16.7) n (%)
same,Feeling abnormal,16 mg evening,0 n (%)
same,Floating feeling,16 mg evening,1 (8.3) n (%)
same,Gastro-intestinal Disorders,16 mg evening,1 (8.3) n (%)
same,Hangover effect,16 mg evening,2 (16.7) n (%)
same,Headache,16 mg evening,4 (33.3) n (%)
same,Indifference,16 mg evening,2 (16.7) n (%)
same,"Injury, Poisoning and Procedural Complications",16 mg evening,0 n (%)
same,Insomnia,16 mg evening,0 n (%)
same,Intoxication,16 mg evening,0 n (%)
same,Irritability,16 mg evening,1 (8.3) n (%)
same,Lethargy,16 mg evening,1 (8.3) n (%)
same,Nervous System Disorders,16 mg evening,8 (66.7) n (%)
same,Paraesthesia,16 mg evening,1 (8.3) n (%)
same,Paraesthesia oral,16 mg evening,0 n (%)
same,Paraesthesia tongue,16 mg evening,0 n (%)
same,Psychiatric Disorders,16 mg evening,8 (66.7) n (%)
same,Racing thoughts,16 mg evening,2 (16.7) n (%)
same,Relaxed,16 mg evening,2 (16.7) n (%)
same,Sensory disturbance,16 mg evening,1 (8.3) n (%)
same,Vision blurred,16 mg evening,1 (8.3) n (%)
same,Visual disturbance,16 mg evening,0 n (%)
same,Vivid dreams,16 mg evening,8 (66.7) n (%)
same,Abnormal physical sensation,20 mg evening,1 (16.7) n (%)
same,At least 1 adverse event,20 mg evening,6 (100) n (%)
same,Dizziness,20 mg evening,0 n (%)
same,Drowsiness,20 mg evening,2 (33.3) n (%)
same,Elevated mood,20 mg evening,1 (16.7) n (%)
same,Euphoric mood,20 mg evening,3 (50.0) n (%)
same,Eye Disorders,20 mg evening,1 (16.7) n (%)
same,Fatigue,20 mg evening,0 n (%)
same,Feeling abnormal,20 mg evening,0 n (%)
same,Floating feeling,20 mg evening,0 n (%)
same,Gastro-intestinal Disorders,20 mg evening,0 n (%)
same,Hangover effect,20 mg evening,0 n (%)
same,Headache,20 mg evening,5 (83.3) n (%)
same,Indifference,20 mg evening,0 n (%)
same,"Injury, Poisoning and Procedural Complications",20 mg evening,2 (33.3) n (%)
same,Insomnia,20 mg evening,1 (16.7) n (%)
same,Intoxication,20 mg evening,2 (33.3) n (%)
same,Irritability,20 mg evening,1 (16.7) n (%)
same,Lethargy,20 mg evening,2 (33.3) n (%)
same,Nervous System Disorders,20 mg evening,6 (100) n (%)
same,Paraesthesia,20 mg evening,1 (16.7) n (%)
same,Paraesthesia oral,20 mg evening,0 n (%)
same,Paraesthesia tongue,20 mg evening,0 n (%)
same,Psychiatric Disorders,20 mg evening,5 (83.3) n (%)
same,Racing thoughts,20 mg evening,0 n (%)
same,Relaxed,20 mg evening,4 (66.7) n (%)
same,Sensory disturbance,20 mg evening,2 (33.3) n (%)
same,Vision blurred,20 mg evening,1 (16.7) n (%)
same,Visual disturbance,20 mg evening,0 n (%)
same,Vivid dreams,20 mg evening,2 (33.3) n (%)
same,Abnormal physical sensation,24 mg evening,0 n (%)
same,At least 1 adverse event,24 mg evening,6 (100) n (%)
same,Dizziness,24 mg evening,1 (16.7) n (%)
same,Drowsiness,24 mg evening,3 (50.0) n (%)
same,Elevated mood,24 mg evening,0 n (%)
same,Euphoric mood,24 mg evening,1 (16.7) n (%)
same,Eye Disorders,24 mg evening,2 (33.3) n (%)
same,Fatigue,24 mg evening,0 n (%)
same,Feeling abnormal,24 mg evening,1 (16.7) n (%)
same,Floating feeling,24 mg evening,1 (16.7) n (%)
same,Gastro-intestinal Disorders,24 mg evening,0 n (%)
same,Hangover effect,24 mg evening,0 n (%)
same,Headache,24 mg evening,6 (100) n (%)
same,Indifference,24 mg evening,0 n (%)
same,"Injury, Poisoning and Procedural Complications",24 mg evening,0 n (%)
same,Insomnia,24 mg evening,1 (16.7) n (%)
same,Intoxication,24 mg evening,0 n (%)
same,Irritability,24 mg evening,0 n (%)
same,Lethargy,24 mg evening,1 (16.7) n (%)
same,Nervous System Disorders,24 mg evening,6 (100) n (%)
same,Paraesthesia,24 mg evening,1 (16.7) n (%)
same,Paraesthesia oral,24 mg evening,0 n (%)
same,Paraesthesia tongue,24 mg evening,0 n (%)
same,Psychiatric Disorders,24 mg evening,4 (66.7) n (%)
same,Racing thoughts,24 mg evening,1 (16.7) n (%)
same,Relaxed,24 mg evening,0 n (%)
same,Sensory disturbance,24 mg evening,0 n (%)
same,Vision blurred,24 mg evening,1 (16.7) n (%)
same,Visual disturbance,24 mg evening,0 n (%)
same,Vivid dreams,24 mg evening,2 (33.3) n (%)
same,Abnormal physical sensation,any dose,2 (9.1) n (%)
same,At least 1 adverse event,any dose,19 (86.4) n (%)
same,Dizziness,any dose,2 (9.1) n (%)
same,Drowsiness,any dose,7 (31.8) n (%)
same,Elevated mood,any dose,6 (27.3) n (%)
same,Euphoric mood,any dose,8 (36.4) n (%)
same,Eye Disorders,any dose,9 (40.9) n (%)
same,Fatigue,any dose,2 (9.1) n (%)
same,Feeling abnormal,any dose,4 (18.2) n (%)
same,Floating feeling,any dose,2 (9.1) n (%)
same,Gastro-intestinal Disorders,any dose,4 (18.2) n (%)
same,Hangover effect,any dose,2 (9.1) n (%)
same,Headache,any dose,10 (45.5) n (%)
same,Indifference,any dose,2 (9.1) n (%)
same,"Injury, Poisoning and Procedural Complications",any dose,2 (9.1) n (%)
same,Insomnia,any dose,2 (9.1) n (%)
same,Intoxication,any dose,2 (9.1) n (%)
same,Irritability,any dose,2 (9.1) n (%)
same,Lethargy,any dose,3 (13.6) n (%)
same,Nervous System Disorders,any dose,16 (72.7) n (%)
same,Paraesthesia,any dose,2 (9.1) n (%)
same,Paraesthesia oral,any dose,2 (9.1) n (%)
same,Paraesthesia tongue,any dose,2 (9.1) n (%)
same,Psychiatric Disorders,any dose,15 (68.2) n (%)
same,Racing thoughts,any dose,4 (18.2) n (%)
same,Relaxed,any dose,9 (40.9) n (%)
same,Sensory disturbance,any dose,3 (13.6) n (%)
same,Vision blurred,any dose,4 (18.2) n (%)
same,Visual disturbance,any dose,4 (18.2) n (%)
same,Vivid dreams,any dose,11 (50.0) n (%)
same,Tolerability,single doses,Single doses up to 16 mg were generally well tolerated
